From PubChem BioAssay (NCI)
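A five-concentration, 48-hour dose response in 96-well plates underlies each endpoint, interpolated linearly between surrounding concentrations. GI50 is the concentration that inhibits growth by half. The concentration for full growth arrest is given as TGI.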

Tests used:
Test in all cases: growth of human tumour cells (NCI), 48 h
786-0 renal = test system: 786-0 renal
A498 renal = test system: A498 renal
A549 NSCLC = test system: A549 NSCLC
ACHN renal = test system: ACHN renal
BT-549 breast = test system: BT-549 breast
CAKI-1 renal = test system: CAKI-1 renal
COLO 205 colon = test system: COLO 205 colon
DU-145 prostate = test system: DU-145 prostate
HCT-116 colon = test system: HCT-116 colon
HCT-15 colon = test system: HCT-15 colon
HL-60(TB) leukemia = test system: HL-60(TB) leukemia
HOP-62 NSCLC = test system: HOP-62 NSCLC
HOP-92 NSCLC = test system: HOP-92 NSCLC
HS 578T breast = test system: HS 578T breast
HT29 colon = test system: HT29 colon
IGROV1 ovarian = test system: IGROV1 ovarian
K-562 leukemia = test system: K-562 leukemia
KM12 colon = test system: KM12 colon
LOX IMVI melanoma = test system: LOX IMVI melanoma
M14 melanoma = test system: M14 melanoma
MALME-3M melanoma = test system: MALME-3M melanoma
MCF7 breast = test system: MCF7 breast
MDA-MB-231 breast = test system: MDA-MB-231 breast
MDA-MB-435 = test system: MDA-MB-435
MOLT-4 leukemia = test system: MOLT-4 leukemia
NCI-H226 lung = test system: NCI-H226 lung
NCI-H23 lung = test system: NCI-H23 lung
NCI-H460 lung = test system: NCI-H460 lung
NCI-H522 lung = test system: NCI-H522 lung
NCI/ADR-RES ovarian = test system: NCI/ADR-RES ovarian
OVCAR-3 ovarian = test system: OVCAR-3 ovarian
OVCAR-4 ovarian = test system: OVCAR-4 ovarian
OVCAR-5 ovarian = test system: OVCAR-5 ovarian
OVCAR-8 ovarian = test system: OVCAR-8 ovarian
PC-3 prostate = test system: PC-3 prostate
RPMI-8226 leukemia = test system: RPMI-8226 leukemia
RXF 393 renal = test system: RXF 393 renal
SF-268 CNS = test system: SF-268 CNS
SF-295 CNS = test system: SF-295 CNS
SF-539 CNS = test system: SF-539 CNS
SK-MEL-2 melanoma = test system: SK-MEL-2 melanoma
SK-MEL-28 melanoma = test system: SK-MEL-28 melanoma
SK-MEL-5 melanoma = test system: SK-MEL-5 melanoma
SK-OV-3 ovarian = test system: SK-OV-3 ovarian
SN12C renal = test system: SN12C renal
SNB-19 CNS = test system: SNB-19 CNS
SNB-75 CNS = test system: SNB-75 CNS
SR leukemia = test system: SR leukemia
SW-620 colon = test system: SW-620 colon
T-47D breast = test system: T-47D breast
TK-10 renal = test system: TK-10 renal
U251 CNS = test system: U251 CNS
UACC-257 melanoma = test system: UACC-257 melanoma
UACC-62 melanoma = test system: UACC-62 melanoma
UO-31 renal = test system: UO-31 renal
CCRF-CEM leukemia = test system: CCRF-CEM leukemia
EKVX NSCLC = test system: EKVX NSCLC
HCC-2998 colon = test system: HCC-2998 colon

O=C(CC(Cl)(Cl)C(Cl)(Cl)Cl)c1ccccc1
TGI (786-0 renal): 11.4 µM | TGI (A498 renal): 34.6 µM | TGI (A549 NSCLC): 39.1 µM | TGI (ACHN renal): 5.29 µM | TGI (BT-549 breast): 39.9 µM | TGI (CAKI-1 renal): 4.39 µM | TGI (COLO 205 colon): 13.2 µM | TGI (DU-145 prostate): 15.1 µM | TGI (HCT-116 colon): 4.91 µM | TGI (HCT-15 colon): 4.56 µM | TGI (HL-60(TB) leukemia): 29.9 µM | TGI (HOP-62 NSCLC): 16.4 µM | TGI (HOP-92 NSCLC): 59.5 µM | TGI (HS 578T breast): 56.2 µM | TGI (HT29 colon): 4.72 µM | TGI (IGROV1 ovarian): 18.3 µM | TGI (K-562 leukemia): 4.57 µM | TGI (KM12 colon): 14.8 µM | TGI (LOX IMVI melanoma): 3.74 µM | TGI (M14 melanoma): 7.4 µM | TGI (MALME-3M melanoma): 8.91 µM | TGI (MCF7 breast): 23.6 µM | TGI (MDA-MB-231 breast): 5.48 µM | TGI (MDA-MB-435): 5.34 µM | TGI (MOLT-4 leukemia): 5.02 µM | TGI (NCI-H226 lung): 16.2 µM | TGI (NCI-H23 lung): 20.5 µM | TGI (NCI-H460 lung): 32.5 µM | TGI (NCI-H522 lung): 7.3 µM | TGI (NCI/ADR-RES ovarian): 43.9 µM | TGI (OVCAR-3 ovarian): 4.33 µM | TGI (OVCAR-4 ovarian): 5.67 µM | TGI (OVCAR-5 ovarian): 25.8 µM | TGI (OVCAR-8 ovarian): 8.53 µM | TGI (PC-3 prostate): 29.1 µM | TGI (RPMI-8226 leukemia): 6.09 µM | TGI (RXF 393 renal): 4.25 µM | TGI (SF-268 CNS): 55.4 µM | TGI (SF-295 CNS): 19.4 µM | TGI (SF-539 CNS): 31.3 µM | TGI (SK-MEL-2 melanoma): 32.3 µM | TGI (SK-MEL-28 melanoma): 5.3 µM | TGI (SK-MEL-5 melanoma): 24.3 µM | TGI (SK-OV-3 ovarian): 38.2 µM | TGI (SN12C renal): 3.09 µM | TGI (SNB-19 CNS): 39.2 µM | TGI (SNB-75 CNS): 29.3 µM | TGI (SR leukemia): 4.37 µM | TGI (SW-620 colon): 12.2 µM | TGI (T-47D breast): 7.08 µM | TGI (TK-10 renal): 18.4 µM | TGI (U251 CNS): 18.3 µM | TGI (UACC-257 melanoma): 3.81 µM | TGI (UACC-62 melanoma): 6.56 µM | TGI (UO-31 renal): 14.5 µM

COc1cnc2c(c1)C(=O)c1c-2n(CCCBr)c(=O)c2cc([N+](=O)[O-])ccc12
GI50 (786-0 renal): 0.223 µM | TGI (786-0 renal): 0.716 µM | GI50 (A549 NSCLC): 0.347 µM | TGI (A549 NSCLC): 6.85 µM | GI50 (ACHN renal): 0.0878 µM | TGI (ACHN renal): 3.14 µM | GI50 (BT-549 breast): 0.519 µM | TGI (BT-549 breast): 9.89 µM | GI50 (CAKI-1 renal): 0.0459 µM | TGI (CAKI-1 renal): 3.05 µM | GI50 (CCRF-CEM leukemia): 0.0575 µM | TGI (CCRF-CEM leukemia): 17.8 µM | GI50 (COLO 205 colon): 0.259 µM | TGI (COLO 205 colon): 2.41 µM | GI50 (DU-145 prostate): 0.2 µM | TGI (DU-145 prostate): 9.09 µM | GI50 (EKVX NSCLC): 1.27 µM | TGI (EKVX NSCLC): 10.7 µM | GI50 (HCC-2998 colon): 0.386 µM | TGI (HCC-2998 colon): 10.2 µM | GI50 (HCT-116 colon): 0.0849 µM | TGI (HCT-116 colon): 1.7 µM | GI50 (HCT-15 colon): 0.35 µM | TGI (HCT-15 colon): 15.3 µM | GI50 (HL-60(TB) leukemia): 0.31 µM | TGI (HL-60(TB) leukemia): 53 µM | GI50 (HOP-62 NSCLC): 0.0578 µM | TGI (HOP-62 NSCLC): 2.6 µM | GI50 (HOP-92 NSCLC): 1.77 µM | TGI (HOP-92 NSCLC): 13.7 µM | GI50 (HS 578T breast): 2.55 µM | TGI (HS 578T breast): 40.1 µM | GI50 (HT29 colon): 0.202 µM | TGI (HT29 colon): 23.1 µM | GI50 (IGROV1 ovarian): 0.163 µM | TGI (IGROV1 ovarian): 2.35 µM | GI50 (K-562 leukemia): 0.255 µM | TGI (K-562 leukemia): > 100 µM | GI50 (KM12 colon): 0.375 µM | TGI (KM12 colon): 8.77 µM | GI50 (LOX IMVI melanoma): 0.075 µM | TGI (LOX IMVI melanoma): 0.549 µM | GI50 (M14 melanoma): 0.14 µM | TGI (M14 melanoma): 2.12 µM | GI50 (MALME-3M melanoma): 0.352 µM | TGI (MALME-3M melanoma): 2.02 µM | GI50 (MCF7 breast): 0.0459 µM | TGI (MCF7 breast): 1.2 µM | GI50 (MDA-MB-231 breast): 2.58 µM | TGI (MDA-MB-231 breast): 31.5 µM | GI50 (MDA-MB-435): 0.474 µM | TGI (MDA-MB-435): 5.04 µM | GI50 (MOLT-4 leukemia): 0.052 µM | TGI (MOLT-4 leukemia): 10.2 µM | GI50 (NCI-H226 lung): 0.499 µM | TGI (NCI-H226 lung): 3.75 µM | GI50 (NCI-H23 lung): 0.218 µM | TGI (NCI-H23 lung): 4.27 µM | GI50 (NCI-H460 lung): 0.0407 µM | TGI (NCI-H460 lung): 0.699 µM | GI50 (NCI-H522 lung): 0.433 µM | TGI (NCI-H522 lung): 8.46 µM | GI50 (NCI/ADR-RES ovarian): 0.187 µM | TGI (NCI/ADR-RES ovarian): 12.4 µM | GI50 (OVCAR-3 ovarian): 0.248 µM | TGI (OVCAR-3 ovarian): 1.05 µM | GI50 (OVCAR-4 ovarian): 0.686 µM | TGI (OVCAR-4 ovarian): 9.17 µM | GI50 (OVCAR-5 ovarian): 1.19 µM | TGI (OVCAR-5 ovarian): 10.2 µM | GI50 (OVCAR-8 ovarian): 0.364 µM | TGI (OVCAR-8 ovarian): 7.21 µM | GI50 (PC-3 prostate): 0.314 µM | TGI (PC-3 prostate): 11.7 µM | GI50 (RPMI-8226 leukemia): 0.301 µM | TGI (RPMI-8226 leukemia): 4.7 µM | GI50 (RXF 393 renal): 0.364 µM | TGI (RXF 393 renal): 2.43 µM | GI50 (SF-268 CNS): 0.158 µM | TGI (SF-268 CNS): 9.3 µM | GI50 (SF-295 CNS): 0.0709 µM | TGI (SF-295 CNS): 0.852 µM | GI50 (SF-539 CNS): 0.279 µM | TGI (SF-539 CNS): 1.07 µM | GI50 (SK-MEL-2 melanoma): 2.04 µM | TGI (SK-MEL-2 melanoma): 6.31 µM | GI50 (SK-MEL-28 melanoma): 1.52 µM | TGI (SK-MEL-28 melanoma): 12 µM | GI50 (SK-MEL-5 melanoma): 0.224 µM | TGI (SK-MEL-5 melanoma): 0.533 µM | GI50 (SK-OV-3 ovarian): 0.312 µM | TGI (SK-OV-3 ovarian): 7.74 µM | GI50 (SN12C renal): 0.269 µM | TGI (SN12C renal): 3.48 µM | GI50 (SNB-19 CNS): 0.282 µM | TGI (SNB-19 CNS): 18.7 µM | GI50 (SNB-75 CNS): 0.43 µM | TGI (SNB-75 CNS): 13.8 µM | GI50 (SR leukemia): 0.0378 µM | TGI (SR leukemia): > 100 µM | GI50 (SW-620 colon): 0.0607 µM | TGI (SW-620 colon): 5.13 µM | GI50 (T-47D breast): 0.233 µM | TGI (T-47D breast): 3.19 µM | GI50 (TK-10 renal): 2 µM | TGI (TK-10 renal): 16.3 µM | GI50 (U251 CNS): 0.101 µM | TGI (U251 CNS): 3.98 µM | GI50 (UACC-257 melanoma): 0.597 µM | TGI (UACC-257 melanoma): 4.39 µM | GI50 (UACC-62 melanoma): 0.0821 µM | TGI (UACC-62 melanoma): 1.48 µM | GI50 (UO-31 renal): 0.0566 µM | TGI (UO-31 renal): 1.51 µM
